Several values for one entry are separate records, joined by “and”; a condition that tells them apart may be missing. Equal values may be shown once. Toxic doses and inconclusive results are not listed.
Test system: BDF1 mice, B16 melanoma ip, median survival T/C
Assay: NCI In Vivo Anticancer Drug Screen. Data for tumor model B16 Melanoma (intraperitoneal) in B6D2F1 (BDF1) mice
Settings: endpoint: median survival time, higher = longer survival
How it was run: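 Values are ratios of treated (T) to vehicle-control (C) measurements of survival or tumor size in tumor-bearing mice.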

[1] = dose: 12.5 mg/kg/injection, schedule: Q01DX009 (ip), vehicle: saline
[2] = dose: 50.0 mg/kg/injection, schedule: Q04DX003 (ip), vehicle: saline
[3] = dose: 100.0 mg/kg/injection, schedule: Q04DX003 (ip), vehicle: saline
[4] = dose: 200.0 mg/kg/injection, schedule: Q04DX003 (ip), vehicle: saline
[5] = dose: 400.0 mg/kg/injection, schedule: Q04DX003 (ip), vehicle: saline
[6] = dose: 100.0 mg/kg/injection, schedule: Q01DX009 (ip), vehicle: saline with Tween-80
[7] = dose: 200.0 mg/kg/injection, schedule: Q01DX009 (ip), vehicle: saline with Tween-80
[8] = dose: 400.0 mg/kg/injection, schedule: Q01DX009 (ip), vehicle: saline with Tween-80
[9] = dose: 12.5 mg/kg/injection, schedule: Q01DX009 (ip), vehicle: Klucel (hydroxypropylcellulose) (HPC)
[10] = dose: 25.0 mg/kg/injection, schedule: Q01DX009 (ip), vehicle: Klucel (hydroxypropylcellulose) (HPC)
[11] = dose: 100.0 mg/kg/injection, schedule: Q04DX003 (ip), vehicle: Klucel (hydroxypropylcellulose) (HPC)
[12] = dose: 200.0 mg/kg/injection, schedule: Q04DX003 (ip), vehicle: Klucel (hydroxypropylcellulose) (HPC)
[13] = dose: 100.0 mg/kg/injection, schedule: Q01DX009 (ip), vehicle: saline
[14] = dose: 200.0 mg/kg/injection, schedule: Q01DX009 (ip), vehicle: saline
[15] = dose: 400.0 mg/kg/injection, schedule: Q01DX009 (ip), vehicle: saline
[16] = dose: 25.0 mg/kg/injection, schedule: Q01DX009 (ip), vehicle: saline
[17] = dose: 3.12 mg/kg/injection, schedule: Q01DX009 (ip), vehicle: Klucel (hydroxypropylcellulose) (HPC)
[18] = dose: 6.25 mg/kg/injection, schedule: Q01DX009 (ip), vehicle: Klucel (hydroxypropylcellulose) (HPC)
[19] = dose: 100.0 mg/kg/injection, schedule: Q01DX009 (ip), vehicle: Klucel (hydroxypropylcellulose) (HPC)
[20] = dose: 200.0 mg/kg/injection, schedule: Q01DX009 (ip), vehicle: Klucel (hydroxypropylcellulose) (HPC)
[21] = dose: 50.0 mg/kg/injection, schedule: Q01DX009 (ip), vehicle: saline

FC(F)(F)c1ccc2c(c1)N(CCCNCCN1CCOCC1)c1ccccc1S2
T/C (dose: 1.56 mg/kg/injection, schedule: Q01DX009 (ip), vehicle: saline): 105 % of control | T/C (dose: 1.56 mg/kg/injection, schedule: Q04DX003 (ip), vehicle: saline): 93 % of control and 95 % of control | T/C (dose: 3.12 mg/kg/injection, schedule: Q01DX009 (ip), vehicle: saline): 88 % of control | T/C (dose: 3.12 mg/kg/injection, schedule: Q04DX003 (ip), vehicle: saline): 102 % of control | T/C (dose: 6.25 mg/kg/injection, schedule: Q04DX003 (ip), vehicle: saline): 100 % of control and 105 % of control | T/C [1]: 100 % of control | T/C (dose: 12.5 mg/kg/injection, schedule: Q04DX003 (ip), vehicle: saline): 93 % of control and 107 % of control | T/C (dose: 25.0 mg/kg/injection, schedule: Q04DX003 (ip), vehicle: saline): 99 % of control and 100 % of control | T/C [2]: 90 % of control

O=C(CCCCC(=O)Nc1ccc(C2=NCCN2)cc1)Nc1ccc(C2=NCCN2)cc1
T/C [2]: 96 % of control | T/C [3]: 93 % of control | T/C [4]: 90 % of control | T/C [5]: 86 % of control

O=C(Nc1cccc(Cl)c1)Nc1cc(Cl)ccc1Cl
T/C [6]: 100 % of control | T/C [7]: 89 % of control | T/C [8]: 86 % of control

S=P(NCCNP(=S)(N1CC1)N1CC1)(N1CC1)N1CC1
T/C [9]: 118 % of control | T/C [10]: 124 % of control

CNc1ccc(S(=O)(=O)O)cc1
T/C [11]: 100 % of control | T/C [12]: 100 % of control | T/C (dose: 400.0 mg/kg/injection, schedule: Q04DX003 (ip), vehicle: Klucel (hydroxypropylcellulose) (HPC)): 86 % of control

NC(=O)Nc1ccccc1
T/C [13]: 97 % of control | T/C [14]: 100 % of control | T/C [15]: 104 % of control

Cc1cc(O)c2c(c1O)C(=O)C13C(=C2O)C(=O)C2C(O)C1C1C(O)C3C(=O)C3=C(O)c4c(O)cc(C)c(O)c4C(=O)C321 (configuration not stated)
T/C (dose: 0.19 mg/kg/injection, schedule: Q01DX009 (ip), vehicle: saline with Tween-80): 105 % of control | T/C (dose: 0.39 mg/kg/injection, schedule: Q01DX009 (ip), vehicle: saline with Tween-80): 114 % of control | T/C (dose: 0.78 mg/kg/injection, schedule: Q01DX009 (ip), vehicle: saline with Tween-80): 121 % of control

Cc1cc(=O)[nH]c(Nc2ccccc2)n1
T/C [6]: 105 % of control | T/C [7]: 92 % of control | T/C [8]: 102 % of control

CC(=O)CC(C)=O.CC(=O)CC(C)=O.O=N[O-].O=N[O-].[Co]
T/C (dose: 12.5 mg/kg/injection, schedule: Q01DX009 (ip), vehicle: saline with Tween-80): 96 % of control | T/C (dose: 25.0 mg/kg/injection, schedule: Q01DX009 (ip), vehicle: saline with Tween-80): 103 % of control | T/C (dose: 50.0 mg/kg/injection, schedule: Q01DX009 (ip), vehicle: saline with Tween-80): 91 % of control

CC(=O)C1CCC2C3CCC4=CC(=O)CC4(C)C3CCC12C (configuration not stated)
T/C (dose: 100.0 mg/kg/injection, schedule: Q04DX003 (ip), vehicle: saline with Tween-80): 94 % of control | T/C (dose: 200.0 mg/kg/injection, schedule: Q04DX003 (ip), vehicle: saline with Tween-80): 105 % of control

COc1cc(/C=C/[N+](=O)[O-])c([N+](=O)[O-])cc1OC
T/C (dose: 6.25 mg/kg/injection, schedule: Q01DX009 (ip), vehicle: saline): 102 % of control | T/C [1]: 90 % of control | T/C [16]: 92 % of control

C1CCC2OCCOCCOC3CCCCC3OCCOCCOC2C1 (configuration not stated)
T/C [17]: 91 % of control and 95 % of control | T/C [18]: 95 % of control and 107 % of control | T/C [9]: 106 % of control and 111 % of control | T/C [10]: 108 % of control and 121 % of control | T/C (dose: 50.0 mg/kg/injection, schedule: Q01DX009 (ip), vehicle: Klucel (hydroxypropylcellulose) (HPC)): 98 % of control

O=C(OCC(COC(=O)c1ccccc1)(COC(=O)c1ccccc1)COC(=O)c1ccccc1)c1ccccc1
T/C [19]: 111 % of control | T/C [20]: 102 % of control | T/C (dose: 400.0 mg/kg/injection, schedule: Q01DX009 (ip), vehicle: Klucel (hydroxypropylcellulose) (HPC)): 92 % of control

COc1c(I)c2c(c(OC)c1OC)-c1ccc(OC)c(=O)cc1C(NC(C)=O)CC2 (configuration not stated)
T/C (dose: 0.78 mg/kg/injection, schedule: Q01DX009 (ip), vehicle: Klucel (hydroxypropylcellulose) (HPC)): 104 % of control | T/C (dose: 1.56 mg/kg/injection, schedule: Q01DX009 (ip), vehicle: Klucel (hydroxypropylcellulose) (HPC)): 104 % of control and 124 % of control | T/C [17]: 112 % of control | T/C [18]: 121 % of control | T/C [9]: 112 % of control

Cc1[nH]c(=O)[nH]c(=O)c1C
T/C (dose: 50.0 mg/kg/injection, schedule: Q04DX003 (ip), vehicle: Klucel (hydroxypropylcellulose) (HPC)): 88 % of control | T/C [19]: 88 % of control | T/C [11]: 97 % of control | T/C [20]: 91 % of control | T/C [12]: 91 % of control

O=S(=O)(c1ccc(NC(=S)N/N=C/c2ccccc2O)cc1)N1CCCCC1
T/C (dose: 25.0 mg/kg/injection, schedule: Q01DX009 (ip), vehicle: olive oil, sesame oil, peanut oil): 87 % of control | T/C (dose: 50.0 mg/kg/injection, schedule: Q01DX009 (ip), vehicle: olive oil, sesame oil, peanut oil): 87 % of control

C[n+]1cccc(O)c1
T/C [3]: 95 % of control | T/C [4]: 97 % of control | T/C [5]: 102 % of control

CC[C@@]1(O)C(=O)OCc2c1cc1n(c2=O)Cc2cc3ccccc3nc2-1
T/C (dose: 0.39 mg/kg/injection, schedule: Q01DX009 (ip), vehicle: other): 151 % of control | T/C (dose: 0.79 mg/kg/injection, schedule: Q01DX009 (ip), vehicle: other): 189 % of control

OC(CBr)C(O)C(O)C(O)CBr (configuration not stated)
T/C [1]: 110 % of control | T/C (dose: 20.0 mg/kg/injection, schedule: Q01DX009 (ip), vehicle: saline with Tween-80): 107 % of control | T/C [16]: 107 % of control | T/C (dose: 25.9 mg/kg/injection, schedule: Q01DX009 (ip), vehicle: saline with Tween-80): 109 % of control | T/C (dose: 40.0 mg/kg/injection, schedule: Q01DX009 (ip), vehicle: saline with Tween-80): 100 % of control | T/C (dose: 43.2 mg/kg/injection, schedule: Q01DX009 (ip), vehicle: saline with Tween-80): 105 % of control | T/C [21]: 120 % of control and 107 % of control | T/C (dose: 72.0 mg/kg/injection, schedule: Q01DX009 (ip), vehicle: saline with Tween-80): 116 % of control | T/C (dose: 80.0 mg/kg/injection, schedule: Q01DX009 (ip), vehicle: saline with Tween-80): 108 % of control | T/C [6]: 103 % of control and 120 % of control | T/C [13]: 107 % of control | T/C (dose: 120.0 mg/kg/injection, schedule: Q01DX009 (ip), vehicle: saline with Tween-80): 101 % of control | T/C (dose: 160.0 mg/kg/injection, schedule: Q01DX009 (ip), vehicle: saline with Tween-80): 115 % of control | T/C [7]: 113 % of control and 114 % of control | T/C [14]: 117 % of control and 110 % of control | T/C (dose: 300.0 mg/kg/injection, schedule: Q01DX009 (ip), vehicle: saline with Tween-80): 82 % of control | T/C (dose: 555.8 mg/kg/injection, schedule: Q01DX009 (ip), vehicle: saline with Tween-80): 55 % of control | T/C (dose: 800.0 mg/kg/injection, schedule: Q01DX009 (ip), vehicle: saline with Tween-80): 112 % of control

CCN(CC)CCOC(=O)c1cccnc1
T/C [16]: 100 % of control | T/C [21]: 105 % of control | T/C [13]: 102 % of control | T/C [14]: 102 % of control | T/C [15]: 100 % of control

C=CCNC(=O)c1ccccc1SC(C)=O
T/C (dose: 100.0 mg/kg/injection, schedule: Q01DX009 (ip), vehicle: saline + Tween-80 + alcohol): 101 % of control | T/C (dose: 200.0 mg/kg/injection, schedule: Q01DX009 (ip), vehicle: saline + Tween-80 + alcohol): 116 % of control | T/C (dose: 400.0 mg/kg/injection, schedule: Q01DX009 (ip), vehicle: saline + Tween-80 + alcohol): 124 % of control

CCOC(=O)c1ccc(NS(C)(=O)=O)cc1
T/C (dose: 75.0 mg/kg/injection, schedule: Q01DX009 (ip), vehicle: Klucel (hydroxypropylcellulose) (HPC)): 94 % of control | T/C (dose: 150.0 mg/kg/injection, schedule: Q01DX009 (ip), vehicle: Klucel (hydroxypropylcellulose) (HPC)): 102 % of control | T/C (dose: 300.0 mg/kg/injection, schedule: Q01DX009 (ip), vehicle: Klucel (hydroxypropylcellulose) (HPC)): 108 % of control
